PMC8920379, “The discovery of berberine erythrocyte-hemoglobin self-assembly delivery system: a neglected carrier underlying its pharmacokinetics” (Drug Delivery, 2022)
Like-named read-outs stand apart in the source and are kept apart here.

How the values were obtained:
[1] = Bioavailability study of BBR via intravenous and oral administration (free drug in plasma, HPLC); assay type: in vivo, SD rats; settings: rat plasma; for AUC(0-t): n = 8, mean ± SEM
Method: Sixteen SD rats were randomly divided into two groups (n = 8) and received a single intragastrical administration (i.g.) of BBR at the dose of 400 mg/kg and intravenous injection (i.v.) at 2.5 mg/kg dose, respectively. Blood samples (0.5 mL) were obtained from the retroorbital sinus at 0.083, 0.167, 0.25, 0.5, 1, 2, 4, 8 and 24 h after administration for i.v. group and at 0.083, 0.167, 0.25, 0.5, 1, 2, 4, 8 and 24 h for i.g. groups. The plasma samples were processed with a protein precipitation method using acetonitrile and the concentration of free drug was analyzed by HPLC (Li et al., [2016]).

bovine hemoglobin (BHB) [2] = target: T1, bovine hemoglobin (BHB) (Bos taurus, UniProt P01966+P02070); assay: Circular dichroism of BHB-BBR systems; assay type: binding; settings: CD, BHB:BBR molar ratios up to 1:8, reduced from 36.87% for BHB alone, pH 7.4, 298 K
T1 construct: purchased Sigma Aldrich
Method: (§1) In addition, CD spectra were collected from 200 to 260 nm with three scans averaged for each CD spectrum. The molar ratio (1:1) of BHB: BBR was used for the measurement. Briefly, BHB and BBR were dissolved in Tris-HCl (pH 7.4), and the solutions were freeze-dried into powder. Raman spectra were measured from 2600 to 400 cm^−1 using the Nd-YAG laser (1064 nm). Due to the existence of inner filter effects, the fluorescence parameter was corrected using the equation: F=F0×10^(AEX+AEM/2) where F and F0 are the fluorescence intensity corrected and observed, respectively; AEX and AEM are the sums of the absorbance of samples at excitation and emission wavelengths (Chen et al., [2021]).
In this work, the molar ratios of 1:0, 1:2, 1:4 and 1:8 for BHB: BBR were utilized for the CD records. […] Besides, the helix of α chain can be calculated following the below equation: α−Helix(%)=−MRE208−4000/33000−4000×100 where MRE208 is the observed MRE value at 208 nm, 4000 is the MRE value of β-form and random coil conformation cross at 208 nm, and 33,000 is the MRE value of pure α-helix at 208 nm (Shobini et al., [2001]).

bovine hemoglobin (BHB) [3] = target: T1, bovine hemoglobin (BHB); assay: Fluorescence quenching of BHB by BBR (Stern-Volmer) and thermodynamic parameters; assay type: binding; settings: for Ksv (Stern-Volmer quenching constant) / kq (quenching rate constant): BHB 2 × 10^−6 mol/L, pH 7.4; for ΔG° / ΔH° / ΔS°: BBR–BHB system
Method: Firstly, 1.0 mL of BHB (2.0 × 10^−6 mol/L) was mixed with 1.0 mL of 0.05 mol/L Tris-HCl buffer (pH = 7.4). And then BHB was added with different amounts of 0.25 × 10^−3 mol/L stock solution of BBR with an increment of 0.25 × 10^−5 mol/L until 1.75 × 10^−5 mol/L. […] (excitation at 280 nm and emission wavelengths ranging from 295 to 400 nm). The synchronous fluorescence spectra were measured through simultaneous scanning of the excitation (λex = 240 nm) and emission monochromators while maintaining a constant wavelength interval between them (Δλ, 15 nm and 60 nm).
as §1
Fluorescence quenching could be used to explore the interaction between drugs and proteins, and further elucidate the interaction between small drug molecules and biological macromolecules at the molecular level. Due to the quenching mechanisms were usually classified as static and dynamic quenching, the Stern-Volmer equation was utilized to calculate the fluorescence quenching data (Wang et al., [2007]): F0/F=1+Ksv[Q]=1+kqτ0[Q] where F0 and F are the fluorescence intensities at the absence or presence of BBR after correction by Equation, respectively. Ksv is the Stern-Volmer quenching constant, while [Q] is the concentration of the quencher. In addition, kq is the quenching rate constant of the binding system, and τ0 is the lifetime of fluorescence at the absence of quencher ([…]) (Sousa et al., [2008]).
In our earlier research, we have explored the association constants and the number of binding sites, and we have learned that in a static quenching system when a small molecule combines with a set of sites on a macromolecule, some constant can be calculated from the following equation: lg(F0−F/F)=lgKa+nlg[Q] where F0 and F are the fluorescence intensities in the absence and presence of BBR after correction by Equation in Spectrum procedure, Ka and n mean the association constants and the number of the sites per BHB molecule. The interrelated results were shown in our previous work (Chen et al., [2021]).
The thermodynamic parameters were analyzed using the following equations: ln((Ka)2/(Ka)1)=(1/T1−1/T2)(ΔH°/R) ΔG°=ΔH°−TΔS°=−RTlnKa where (Ka)1, and (Ka)2 are the binding constants at T1 and T2 and, R is the universal gas constant. If ΔH° < 0 and ΔS° < 0, van der Waals’ interactions and hydrogen bonds are dominant the binding reaction. If ΔH° > 0 and ΔS° > 0, hydrophobic interactions play a major role in the binding reaction. When ΔH° < 0 and ΔS° > 0, the electrostatic forces are more important than other forces (Ross and Subramanian, [1981]). […] The large positive entropy is the marker of the disruption and release of protein-bound condensed ions and water molecules (Basu & Suresh Kumar, [2015]).

[4] = set-up: method as in Liu et al., 2010; Chen et al., 2011; settings: ref Liu et al., 2010; Chen et al., 2011; cited from earlier work
[5] = SD, intravenous administration 2.5 mg/kg, n = 8
[6] = SD, oral administration 400 mg/kg, n = 8

T1 sequence (P01966 2-142 limits assumed): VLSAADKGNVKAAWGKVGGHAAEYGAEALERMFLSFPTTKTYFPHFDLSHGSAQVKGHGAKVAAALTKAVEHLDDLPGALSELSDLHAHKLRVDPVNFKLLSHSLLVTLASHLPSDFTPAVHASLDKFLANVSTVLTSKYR
T1 sequence (P02070 whole entry): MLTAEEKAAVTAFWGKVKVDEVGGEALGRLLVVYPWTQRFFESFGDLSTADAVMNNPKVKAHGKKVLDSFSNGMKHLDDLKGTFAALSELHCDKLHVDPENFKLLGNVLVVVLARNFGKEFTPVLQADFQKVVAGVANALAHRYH

COc1ccc2cc3[n+](cc2c1OC)CCc1cc2c(cc1-3)OCO2 [BBR, Berberine]
AUC(0-inf) [1, 5]: 7440 ± 548 ng·h/mL | MRT [1, 5]: 5.6 ± 0.561 h | AUC(0-t) ([1]; SD, intravenous administration 2.5 mg/kg): 6420 ± 685 ng·h/mL | Cmax ([1]; SD, intravenous administration 2.5 mg/kg, n = 8, read-out: Cmax/C0 (C0)): 2830 ± 132 ng/mL | AUC(0-inf) [1, 6]: 685 ± 93 ng·h/mL | MRT [1, 6]: 4.53 ± 0.515 h | Tmax [1, 6]: 1 h | AUC(0-t) ([1]; SD, oral administration 400 mg/kg): 681 ± 93 ng·h/mL | CL/F ([1]; SD, oral administration 400 mg/kg, n = 8, read-out: Clz/F (converted)): 254 L/h/kg | Cmax ([1]; SD, oral administration 400 mg/kg, n = 8, read-out: Cmax/C0 (Cmax)): 260 ± 32 ng/mL | t1/2z ([1]; intravenous administration 2.5 mg/kg, n = 8, 2.5 mg/kg): 3.885 ± 0.389 h | t1/2z ([1]; oral administration 400 mg/kg, n = 8, 400 mg/kg): 3.136 ± 0.357 h | α-helicity of BHB after addition of BBR (bovine hemoglobin (BHB) [2]): 33.53% | Ksv (Stern-Volmer quenching constant) (bovine hemoglobin (BHB) [3]; 293 K): 41272 L/mol | kq (quenching rate constant) (bovine hemoglobin (BHB) [3]; 293 K): 4.1272e+12 M⁻¹ s⁻¹ | Ksv (Stern-Volmer quenching constant) (bovine hemoglobin (BHB) [3]; 298 K): 38445 L/mol | kq (quenching rate constant) (bovine hemoglobin (BHB) [3]; 298 K): 3.8445e+12 M⁻¹ s⁻¹ | Ksv (Stern-Volmer quenching constant) (bovine hemoglobin (BHB) [3]; 310 K): 30957 L/mol | kq (quenching rate constant) (bovine hemoglobin (BHB) [3]; 310 K): 3.0957e+12 M⁻¹ s⁻¹ | ΔG° (bovine hemoglobin (BHB) [3]; 293 K): -6.1902 kcal/mol | ΔH° (bovine hemoglobin (BHB) [3]; 293 K): -1.1352 kcal/mol | ΔS° (bovine hemoglobin (BHB) [3]; 293 K): 72.113 J mol^−1K^−1 | ΔG° (bovine hemoglobin (BHB) [3]; 298 K): -6.2765 kcal/mol | ΔH° (bovine hemoglobin (BHB) [3]; 298 K): -1.1352 kcal/mol | ΔS° (bovine hemoglobin (BHB) [3]; 298 K): 72.114 J mol^−1K^−1 | ΔG° (bovine hemoglobin (BHB) [3]; 310 K): -6.4493 kcal/mol | ΔH° (bovine hemoglobin (BHB) [3]; 310 K): -1.1352 kcal/mol | ΔS° (bovine hemoglobin (BHB) [3]; 310 K): 71.724 J mol^−1K^−1 | quenching mechanism of BBR-BHB complex formation (bovine hemoglobin (BHB) [3]; Ksv and Kq decreased with increasing temperature): static quenching process | major force in the binding reaction (bovine hemoglobin (BHB) [3]; from negative ΔH° and positive ΔS°): electrostatic interaction | oral bioavailability [4]: less than 1%
